PubChem BioAssay (NCI)
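In this assay, cells in 96-well plates receive the compound at five concentrations for 48 hours. Endpoints are linearly interpolated between the surrounding concentrations. TGI: total growth inhibition.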

Experiments:
Experiment in all cases: NCI tumour cell line growth inhibition, 48 h
786-0 renal = system: 786-0 renal
A498 renal = system: A498 renal
A549 NSCLC = system: A549 NSCLC
ACHN renal = system: ACHN renal
CAKI-1 renal = system: CAKI-1 renal
CCRF-CEM leukemia = system: CCRF-CEM leukemia
COLO 205 colon = system: COLO 205 colon
DLD-1 colon = system: DLD-1 colon
DMS 114 small cell lung = system: DMS 114 small cell lung
DMS 273 small cell lung = system: DMS 273 small cell lung
EKVX NSCLC = system: EKVX NSCLC
HCC-2998 colon = system: HCC-2998 colon
HCT-116 colon = system: HCT-116 colon
HCT-15 colon = system: HCT-15 colon
HL-60(TB) leukemia = system: HL-60(TB) leukemia
HOP-18 NSCLC = system: HOP-18 NSCLC
HOP-62 NSCLC = system: HOP-62 NSCLC
HOP-92 NSCLC = system: HOP-92 NSCLC
HT29 colon = system: HT29 colon
IGROV1 ovarian = system: IGROV1 ovarian
K-562 leukemia = system: K-562 leukemia
KM12 colon = system: KM12 colon
KM20L2 colon = system: KM20L2 colon
LOX IMVI melanoma = system: LOX IMVI melanoma
LXFL 529 NSCLC = system: LXFL 529 NSCLC
M14 melanoma = system: M14 melanoma
M19-MEL melanoma = system: M19-MEL melanoma
MALME-3M melanoma = system: MALME-3M melanoma
MOLT-4 leukemia = system: MOLT-4 leukemia
NCI-H226 lung = system: NCI-H226 lung
NCI-H23 lung = system: NCI-H23 lung
NCI-H460 lung = system: NCI-H460 lung
NCI-H522 lung = system: NCI-H522 lung
OVCAR-3 ovarian = system: OVCAR-3 ovarian
OVCAR-4 ovarian = system: OVCAR-4 ovarian
OVCAR-5 ovarian = system: OVCAR-5 ovarian
OVCAR-8 ovarian = system: OVCAR-8 ovarian
RPMI-8226 leukemia = system: RPMI-8226 leukemia
RXF 393 renal = system: RXF 393 renal
SF-268 CNS = system: SF-268 CNS
SF-295 CNS = system: SF-295 CNS
SF-539 CNS = system: SF-539 CNS
SK-MEL-2 melanoma = system: SK-MEL-2 melanoma
SK-MEL-28 melanoma = system: SK-MEL-28 melanoma
SK-MEL-5 melanoma = system: SK-MEL-5 melanoma
SK-OV-3 ovarian = system: SK-OV-3 ovarian
SN12C renal = system: SN12C renal
SNB-19 CNS = system: SNB-19 CNS
SNB-75 CNS = system: SNB-75 CNS
SNB-78 CNS = system: SNB-78 CNS
SR leukemia = system: SR leukemia
SW-620 colon = system: SW-620 colon
TK-10 renal = system: TK-10 renal
U251 CNS = system: U251 CNS
UACC-257 melanoma = system: UACC-257 melanoma
UACC-62 melanoma = system: UACC-62 melanoma
UO-31 renal = system: UO-31 renal
XF 498 CNS = system: XF 498 CNS

O=C1[C@@H]2C(c3ccccc3[N+](=O)[O-])=[N+](c3ccccc3)O[C@@H]2C(=O)N1c1ccc(Cc2ccc(N3C(=O)[C@H]4C(c5ccccc5[N+](=O)[O-])=[N+](c5ccccc5)O[C@H]4C3=O)cc2)cc1
TGI (786-0 renal): > 100 µM
TGI (A498 renal): > 100 µM
TGI (A549 NSCLC): > 100 µM
TGI (ACHN renal): > 100 µM
TGI (CAKI-1 renal): > 100 µM
TGI (CCRF-CEM leukemia): > 100 µM
TGI (COLO 205 colon): > 100 µM
TGI (DLD-1 colon): > 100 µM
TGI (DMS 114 small cell lung): > 100 µM
TGI (DMS 273 small cell lung): > 100 µM
TGI (EKVX NSCLC): > 100 µM
TGI (HCC-2998 colon): > 100 µM
TGI (HCT-116 colon): > 100 µM
TGI (HCT-15 colon): > 100 µM
TGI (HL-60(TB) leukemia): > 100 µM
TGI (HOP-18 NSCLC): > 100 µM
TGI (HOP-62 NSCLC): > 100 µM
TGI (HOP-92 NSCLC): > 100 µM
TGI (HT29 colon): > 100 µM
TGI (IGROV1 ovarian): > 100 µM
TGI (K-562 leukemia): > 100 µM
TGI (KM12 colon): > 100 µM
TGI (KM20L2 colon): > 100 µM
TGI (LOX IMVI melanoma): > 100 µM
TGI (LXFL 529 NSCLC): > 100 µM
TGI (M14 melanoma): 49.9 µM
TGI (M19-MEL melanoma): > 100 µM
TGI (MALME-3M melanoma): 81.6 µM
TGI (MOLT-4 leukemia): > 100 µM
TGI (NCI-H226 lung): > 100 µM
TGI (NCI-H23 lung): > 100 µM
TGI (NCI-H460 lung): > 100 µM
TGI (NCI-H522 lung): > 100 µM
TGI (OVCAR-3 ovarian): > 100 µM
TGI (OVCAR-4 ovarian): > 100 µM
TGI (OVCAR-5 ovarian): > 100 µM
TGI (OVCAR-8 ovarian): > 100 µM
TGI (RPMI-8226 leukemia): > 100 µM
TGI (RXF 393 renal): > 100 µM
TGI (SF-268 CNS): > 100 µM
TGI (SF-295 CNS): > 100 µM
TGI (SF-539 CNS): > 100 µM
TGI (SK-MEL-2 melanoma): > 100 µM
TGI (SK-MEL-28 melanoma): > 100 µM
TGI (SK-MEL-5 melanoma): > 100 µM
TGI (SK-OV-3 ovarian): > 100 µM
TGI (SN12C renal): > 100 µM
TGI (SNB-19 CNS): > 100 µM
TGI (SNB-75 CNS): > 100 µM
TGI (SNB-78 CNS): > 100 µM
TGI (SR leukemia): > 100 µM
TGI (SW-620 colon): > 100 µM
TGI (TK-10 renal): > 100 µM
TGI (U251 CNS): > 100 µM
TGI (UACC-257 melanoma): > 100 µM
TGI (UACC-62 melanoma): > 100 µM
TGI (UO-31 renal): > 100 µM

COC(=O)c1ccccc1N1C(=O)Cc2ccccc2C1=O
TGI (786-0 renal): > 100 µM
TGI (A549 NSCLC): > 100 µM
TGI (ACHN renal): > 100 µM
TGI (COLO 205 colon): > 100 µM
TGI (DMS 114 small cell lung): > 100 µM
TGI (DMS 273 small cell lung): > 100 µM
TGI (EKVX NSCLC): > 100 µM
TGI (HCC-2998 colon): > 100 µM
TGI (HCT-15 colon): > 100 µM
TGI (HT29 colon): > 100 µM
TGI (IGROV1 ovarian): > 100 µM
TGI (K-562 leukemia): > 100 µM
TGI (KM12 colon): > 100 µM
TGI (KM20L2 colon): > 100 µM
TGI (LXFL 529 NSCLC): > 100 µM
TGI (M19-MEL melanoma): > 100 µM
TGI (MALME-3M melanoma): > 100 µM
TGI (MOLT-4 leukemia): > 100 µM
TGI (NCI-H226 lung): > 100 µM
TGI (NCI-H23 lung): > 100 µM
TGI (OVCAR-3 ovarian): > 100 µM
TGI (OVCAR-5 ovarian): > 100 µM
TGI (OVCAR-8 ovarian): > 100 µM
TGI (RPMI-8226 leukemia): > 100 µM
TGI (RXF 393 renal): > 100 µM
TGI (SF-268 CNS): > 100 µM
TGI (SF-295 CNS): > 100 µM
TGI (SF-539 CNS): > 100 µM
TGI (SK-MEL-2 melanoma): > 100 µM
TGI (SK-MEL-28 melanoma): > 100 µM
TGI (SK-MEL-5 melanoma): > 100 µM
TGI (SK-OV-3 ovarian): > 100 µM
TGI (SN12C renal): > 100 µM
TGI (SNB-19 CNS): > 100 µM
TGI (SNB-75 CNS): 74 µM
TGI (SNB-78 CNS): > 100 µM
TGI (SR leukemia): > 100 µM
TGI (SW-620 colon): > 100 µM
TGI (TK-10 renal): > 100 µM
TGI (U251 CNS): > 100 µM
TGI (UACC-257 melanoma): > 100 µM
TGI (UACC-62 melanoma): > 100 µM
TGI (UO-31 renal): > 100 µM

COc1cc(C2c3cc4c(cc3[C@H](NS(C)(=O)=O)C3COC(=O)[C@H]23)OCO4)cc(OC)c1OC (stereo partly specified)
TGI (786-0 renal): > 100 µM
TGI (ACHN renal): > 100 µM
TGI (CCRF-CEM leukemia): > 100 µM
TGI (COLO 205 colon): 0.436 µM
TGI (DLD-1 colon): > 100 µM
TGI (DMS 273 small cell lung): > 100 µM
TGI (HCC-2998 colon): > 100 µM
TGI (HCT-15 colon): > 100 µM
TGI (HL-60(TB) leukemia): 0.883 µM
TGI (HOP-18 NSCLC): > 100 µM
TGI (HT29 colon): > 100 µM
TGI (K-562 leukemia): > 100 µM
TGI (KM12 colon): > 100 µM
TGI (LOX IMVI melanoma): > 100 µM
TGI (LXFL 529 NSCLC): > 100 µM
TGI (M14 melanoma): > 100 µM
TGI (MALME-3M melanoma): > 100 µM
TGI (MOLT-4 leukemia): 18.5 µM
TGI (NCI-H226 lung): 0.625 µM
TGI (NCI-H460 lung): > 100 µM
TGI (OVCAR-5 ovarian): > 100 µM
TGI (OVCAR-8 ovarian): > 100 µM
TGI (RPMI-8226 leukemia): 46.3 µM
TGI (SF-268 CNS): > 100 µM
TGI (SK-MEL-2 melanoma): > 100 µM
TGI (SN12C renal): > 100 µM
TGI (SR leukemia): > 100 µM
TGI (TK-10 renal): > 100 µM
TGI (UACC-257 melanoma): > 100 µM
TGI (UACC-62 melanoma): > 100 µM
TGI (UO-31 renal): > 100 µM
TGI (XF 498 CNS): > 100 µM

Clc1ccc(CCn2cncn2)cc1
TGI (786-0 renal): > 100 µM
TGI (A498 renal): > 100 µM
TGI (A549 NSCLC): > 100 µM
TGI (ACHN renal): > 100 µM
TGI (CAKI-1 renal): > 100 µM
TGI (CCRF-CEM leukemia): > 100 µM
TGI (COLO 205 colon): > 100 µM
TGI (DLD-1 colon): > 100 µM
TGI (DMS 114 small cell lung): > 100 µM
TGI (DMS 273 small cell lung): > 100 µM
TGI (HCT-116 colon): > 100 µM
TGI (HCT-15 colon): > 100 µM
TGI (HL-60(TB) leukemia): > 100 µM
TGI (HOP-18 NSCLC): > 100 µM
TGI (HOP-62 NSCLC): > 100 µM
TGI (HOP-92 NSCLC): > 100 µM
TGI (HT29 colon): > 100 µM
TGI (IGROV1 ovarian): > 100 µM
TGI (K-562 leukemia): > 100 µM
TGI (KM12 colon): > 100 µM
TGI (KM20L2 colon): > 100 µM
TGI (LOX IMVI melanoma): > 100 µM
TGI (LXFL 529 NSCLC): > 100 µM
TGI (M14 melanoma): > 100 µM
TGI (M19-MEL melanoma): > 100 µM
TGI (MALME-3M melanoma): > 100 µM
TGI (MOLT-4 leukemia): > 100 µM
TGI (NCI-H226 lung): > 100 µM
TGI (NCI-H23 lung): > 100 µM
TGI (NCI-H460 lung): > 100 µM
TGI (NCI-H522 lung): > 100 µM
TGI (OVCAR-3 ovarian): > 100 µM
TGI (OVCAR-4 ovarian): > 100 µM
TGI (OVCAR-5 ovarian): > 100 µM
TGI (OVCAR-8 ovarian): > 100 µM
TGI (RPMI-8226 leukemia): > 100 µM
TGI (RXF 393 renal): > 100 µM
TGI (SF-268 CNS): > 100 µM
TGI (SF-295 CNS): > 100 µM
TGI (SF-539 CNS): > 100 µM
TGI (SK-MEL-2 melanoma): > 100 µM
TGI (SK-MEL-28 melanoma): > 100 µM
TGI (SK-MEL-5 melanoma): > 100 µM
TGI (SK-OV-3 ovarian): > 100 µM
TGI (SN12C renal): > 100 µM
TGI (SNB-75 CNS): > 100 µM
TGI (SNB-78 CNS): > 100 µM
TGI (SR leukemia): > 100 µM
TGI (SW-620 colon): > 100 µM
TGI (TK-10 renal): > 100 µM
TGI (U251 CNS): > 100 µM
TGI (UACC-257 melanoma): > 100 µM
TGI (UACC-62 melanoma): > 100 µM
TGI (UO-31 renal): > 100 µM
